“Also recorded” adds a separate entry of the source. Where two headings read alike, the source gives them in different places.
How the values were obtained:
[1] = test system: Cyp3a11; experiment: Cyp3a11 protein expression in liver microsomes of treated mice by SDS-PAGE and Western blotting; conditions: for Cyp3a11 expression in liver (Western blot): single injection 0, 1, 10, 50 mg/kg, 48 hours
Experimental: (§1) Dosing solutions were prepared on the day of administration by adding corn oil to the requisite quantity of test substance and stirring to obtain a solution or fine suspension. The concentration of PCN was 10 mg/ml and Rif 2.5 mg/ml of supplied chemical, without any correction for purity. Records of preparation were retained.
The volume of vehicle and solutions of inducing agents administered was 10 ml/kg bodyweight. This route of administration was chosen for consistency with previously published work. […]
(§2) Quantification of Cyp3a11, Cyp2b10 and PXR protein in liver microsomes of all mice samples was carried out by SDS-PAGE and Western blotting. To detect murine and human PXR protein, an antibody (RF8) was employed. For the identification of Cyp3a and Cyp2b, […] were used, (CH32 and CH4, respectively).

[2] = test system: Cyp2b10; experiment: Cyp2b10 protein expression of treated mice by SDS-PAGE and Western blotting; conditions: for Cyp2b10 induction (Western blot and PROD activity): CITCO 10 mg/kg; for Cyp2b10 induction profile (Western blot and PROD, liver microsomes): wild-type vs huCAR mice, increasing amounts
Experimental: as §1
Control animals were administered vehicle (corn oil) daily by intraperitoneal injection. The volume of vehicle and solutions of inducing agents administered was 10 ml/kg bodyweight. This route of administration was chosen for consistency with previously published work. […]
as §2

[3] = test system: liver cells; experiment: BrdU incorporation in liver (hepatic cell proliferation, S-phase labelling index); format: in vivo, mouse; conditions: wild-type and huCAR mice
[4] = test system: components of drug metabolism pathways; conditions: inducer of components of drug metabolism pathways; species in which it is known to act more potently; cited from earlier work
[5] = test system: Cyp2b10; experiment: pentoxyresorufin-O-deethylation (PROD) and BROD activity assay in liver microsomes of treated mice
[6] = test system: Cyp3a11; conditions: wild-type mice (Ma et al. 2007); cited from earlier work
[7] = test system: cytochrome P450 enzymes; conditions: single ip; for induction of testosterone 16-beta-hydroxylation: 1 mg/kg
Experimental: The study consisted of 3 animals per group. Control groups consisted of mice treated with either corn oil daily for 4 days or mice administered a single injection of corn oil. The treated mice were dosed with inducing agents as detailed in Table 3.1.
PXR activity was determined by measuring the metabolism of a number of cytochrome P450 substrates which are metabolised to different extents by different cytochrome P450 enzymes. The following assays were performed: • 7-benzyloxyquinoline (BQ) activity was determined in liver microsomes. • Testosterone hydroxylase activity was determined in liver microsomes (LMS HPLC-006). • The specific activities of these reactions was expressed per mg protein as determined using the Lowry assay (LMS Spec-0001).

[8] = Experimental: For the same animals, plasma levels of alanine aminotransferase (ALT), alkaline phosphatase (ALP) and aspartate aminotransferase (AST) were also measured (see FIG. 40). […] Both compounds were administered at 40 mg/kg.
Plasma levels of alanine aminotransferase (ALT), alkaline phosphatase (ALP) and aspartate aminotransferase (AST) were also measured (see FIG. 46).

[9] = Pentobarbitone sleeping test; format: in vivo, mouse; conditions: single ip dose 25 mg/kg
Experimental: In this experiment, the activity of these transcription factors in combination was determined by measuring the barbiturate induced sleeping time. Sleeping time has been known for many years to be directly proportional to the hepatic cytochrome P450 activity and this activity can be at least in part ascribed to the P450 levels in the liver determined by CAR and PXR function.
Mice were given a single intraperitoneal dose of Narcoren (sodium pentobarbitone; purchased via a Veterinary Consultant; distributed by Merial GmbH, Germany) at 25 mg/kg of body weight. The time taken for the mice to lose, and subsequently to regain, their righting reflex was measured.

[10] = wild type mice, TCPOBOP 1 mg/kg

Clc1ccc(-c2nc3sccn3c2C=NOCc2ccc(Cl)c(Cl)c2)cc1 [CITCO, 6-(4-chlorophenyl)imidazo[2,1-b][1,3]thiazole-5-carbaldehyde O-(3,4-dichlorobenzyl)oxime]
Cyp3a11 expression in liver (Western blot) ([1]; huCAR mice): clearly induced | Cyp3a11 expression in liver (Western blot) ([1]; wild type mice): did not induce | Cyp2b10 induction (Western blot and PROD activity) ([2]; huCAR mice): strong induction | Cyp2b10 expression in liver (Western blot) ([2]; huCAR mice, single injection 0, 1, 10, 50 mg/kg, 48 hours): clearly induced | Cyp2b10 induction (Western blot and PROD activity) ([2]; koPXR mice): Some induction | Cyp2b10 expression in liver (Western blot) ([2]; wild type mice, single injection 0, 1, 10, 50 mg/kg, 48 hours): did not induce | Cyp2b10 induction (Western blot and PROD activity) ([2]; wild-type mice): not substantially induced | Cyp2b10 induction profile (Western blot and PROD, liver microsomes) [2]: stronger response in huCAR than in the wild-type | fraction of BrdU positive cells in the liver ([3]; 20 mg/kg 4 times daily, one day after final dose): elevated counts of BrdU positive liver cells only in huCAR animals, not in the wild-type | More potent in: [4]: human | PROD activity ([5]; huCAR mice, increasing amounts of CITCO): marked, dose-dependent induction of PROD activity

Clc1ccccc1C(c1ccccc1)(c1ccccc1)n1ccnc1 [Clotrimazole]
More potent in: [4]: mouse

CC(=O)[C@H]1[C@H](C#N)C[C@H]2[C@@H]3CC=C4C[C@@H](O)CC[C@]4(C)[C@H]3CC[C@@]21C [PCN, 5-Pregnen-3β-ol-20-one-16α-carbonitrile]
More potent in: [4]: mouse | induction of Cyp3a11 mRNA [6]: strongly induced

Clc1cnc(Oc2ccc(Oc3ncc(Cl)cc3Cl)cc2)c(Cl)c1 [TCPOBOP]
Cyp3a11 expression (Western blot and BQ activity) [1, 10]: somewhat induced | Cyp2b10 expression (Western blot and PROD activity) ([2]; huCAR mice, TCPOBOP 1 mg/kg): did not significantly induce | Cyp2b10 induction in liver (Western blot, densitometry) ([2]; koCAR mice, 1 mg/kg): no Cyp2b10 was induced | Cyp2b10 protein expression and PROD activity ([2]; koPXR mice, TCPOBOP 1 mg/kg): comparable to wild type | Cyp2b10 expression (Western blot and PROD activity) [2, 10]: induced; also recorded: strongly induced | Cyp2b10 induction profile (Western blot and PROD, liver microsomes) [2]: more strongly in the wild-type than huCAR mice | induction of testosterone 16-beta-hydroxylation ([7]; huPXR mice): 1.7 fold | induction of 6-beta-hydroxylation of testosterone ([7]; wild type and huPXR mice, TCPOBOP 0.3 and 1 mg/kg): inducible in both strains of mouse | induction of testosterone 16-beta-hydroxylation ([7]; wild type mice): approximately 6 fold | induction of testosterone 16-alpha-hydroxylation ([7]; wild type mice, TCPOBOP 0.3 and 1 mg/kg): significantly induced | fraction of BrdU positive cells in the liver ([3]; single dose 3 mg/kg, one day after dose): elevated counts of BrdU positive liver cells only in wild-type animals | More potent in: [4]: mouse

C[C@@H]1C[C@H]2[C@@H]3CCC4=CC(=O)C=C[C@]4(C)[C@@]3(F)[C@@H](O)C[C@]2(C)[C@@]1(O)C(=O)CO [dexamethasone]
Cyp2b10 expression ([2]; mouse, in vivo, 10 mg/kg): induced Cyp2b10 expression in both wild-type and huCAR mice | Cyp2b10 induction (Western blot), comparison ([2]; mouse, in vivo, 10 mg/kg): less pronounced in huCAR than in wild-type mice | Cyp2b10 expression in liver (Western blot) ([2]; mouse, in vivo, 40 mg/kg): still induced | induction of Cyp2b10 (Western blot) ([2]; mouse, in vivo, 60 mg/kg): induced | mortality ([8]; huPXR mice, dexamethasone 60 mg/kg): One dexamethasone-treated huPXR mouse died | increase in plasma ALT levels and liver weights ([8]; mouse, in vivo, 30 mg/kg): clearly more pronounced in mice lacking murine PXR | Cyp2b10 induction (PROD activity), comparison ([5]; huCAR vs wild type mice, 10 mg/kg): weaker in huCAR than in wild type mice | PROD activity ([5]; koCAR mice, 40 mg/kg): still induced | PROD activity ([5]; wild-type, huPXR and koPXR mice, 60 mg/kg): corresponding results were obtained

CCCC(C)C1(CC)C(=O)NC(=O)NC1=O (stereo not shown) [pentobarbitone, sodium pentobarbitone]
Sleeping time ([9]; PXR/CAR hum (double humanised) male mouse): 34 min | Sleeping time ([9]; wt male mouse): 21 min

Source: patent US8624079B2, “Knockin mouse with a disruption in a PXR gene expressing human PXR” (ITI Scotland Limited, priority 2007, dated 2014)
